Reference: patent US9493396B2, “Substituted naphthalene compounds as calcium sensing receptor modulators” (LUPIN ATLANTIS HOLDINGS SA, priority 2013, dated 2016)
pEC50: −log10 of the molar value. Structures can show the parent of a compound that is named as a salt.

Biological target: T1, Calcium sensing receptor (hCaSR) (Homo sapiens, UniProt P41180)
T1 construct: expressed in transfected cells; host or cells: HEK293 (stably transfected)
T1 sequence (P41180 20-1078): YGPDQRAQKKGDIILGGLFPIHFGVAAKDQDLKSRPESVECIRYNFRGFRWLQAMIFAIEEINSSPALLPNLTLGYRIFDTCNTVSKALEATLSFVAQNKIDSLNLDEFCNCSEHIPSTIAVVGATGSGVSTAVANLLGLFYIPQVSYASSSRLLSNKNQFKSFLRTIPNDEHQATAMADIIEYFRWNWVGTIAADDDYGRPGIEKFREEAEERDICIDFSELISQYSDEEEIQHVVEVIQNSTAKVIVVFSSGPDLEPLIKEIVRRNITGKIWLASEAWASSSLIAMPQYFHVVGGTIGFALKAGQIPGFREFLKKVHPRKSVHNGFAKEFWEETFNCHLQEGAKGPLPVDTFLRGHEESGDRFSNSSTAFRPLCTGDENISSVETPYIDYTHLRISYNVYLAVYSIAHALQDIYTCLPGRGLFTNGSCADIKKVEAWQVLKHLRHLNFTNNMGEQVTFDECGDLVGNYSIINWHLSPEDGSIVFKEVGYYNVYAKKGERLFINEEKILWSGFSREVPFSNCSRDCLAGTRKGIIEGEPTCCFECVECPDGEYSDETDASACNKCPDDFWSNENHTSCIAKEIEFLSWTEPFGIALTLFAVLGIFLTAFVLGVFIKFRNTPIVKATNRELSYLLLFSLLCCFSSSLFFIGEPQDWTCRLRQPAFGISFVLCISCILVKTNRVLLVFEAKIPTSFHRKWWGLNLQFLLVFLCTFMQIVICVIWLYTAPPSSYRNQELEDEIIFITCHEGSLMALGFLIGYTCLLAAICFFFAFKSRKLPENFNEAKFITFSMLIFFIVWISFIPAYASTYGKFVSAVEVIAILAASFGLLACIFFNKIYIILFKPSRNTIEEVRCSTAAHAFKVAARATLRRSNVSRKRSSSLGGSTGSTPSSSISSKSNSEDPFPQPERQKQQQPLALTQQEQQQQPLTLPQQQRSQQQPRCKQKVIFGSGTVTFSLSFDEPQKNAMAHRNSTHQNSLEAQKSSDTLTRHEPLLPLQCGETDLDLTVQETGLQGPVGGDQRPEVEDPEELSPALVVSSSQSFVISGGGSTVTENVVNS
Experiment: In-vitro assay of calcimimetics through modulation of calcium sensing receptor (intracellular calcium increase, FLIPR)
Type: cell-based
Details: stably transfected HEK293 cells expressing hCaSR; Fluo4NW dye; 0.3 mM CaCl2; 8-point assay; read-out: EC50 in range
Protocol: In-Vitro Assay Method of Calcimimetics Through Modulation of Calcium Sensing Receptor (CaSR): The ability of the compounds to modulate Calcium sensing receptor is determined by measuring an increase in intracellular calcium [Ca^2+]i. Stably transfected HEK293 cells expressing hCaSR_pTriEx-3 hygro vector are developed. Cells are grown overnight on a 96-well plate to 80% confluency in Ham's F12 containing 20% FBS at 37° C., 5% CO2. Subsequently, cells are washed extensively with 20 mM HEPES buffer containing 126 mM […], 1 mM MgCl2 and 4 mM KCl to remove serum components that might interfere with the assay. Cells are loaded with calcium sensing Fluo4NW dye in HEPES base buffer containing 0.1% BSA and 1 mg/ml glucose for 30 minutes to measure changes in intracellular calcium. The activities of the compounds are measured in FLIPR using 0.3 mM CaCl2 in 20 mM HEPES base buffer. The effectiveness of the compound to modulate receptor activity is determined by calculating the EC50 responses for that compound in an 8-point assay and plotted using GraphPad Prism 5.

SMILES | pEC50
COc1cc([C@@H](C)NC(C)c2cc(-c3ccc(C(F)(F)F)cc3)c3ccccc3c2)ccc1F (mixture of isomers) [Example 11, (1R)-1-(4-Fluoro-3-methoxyphenyl)-N-(1-(4-(4-(trifluoromethyl)phenyl)naphthalen-2-yl)ethyl)ethanamine hydrochloride] | > 7.70
COc1cccc([C@@H](C)NC(C)c2cc(-c3ccc(F)cc3)c3ccccc3c2)c1 (mixture of isomers) [Example 15, 1-(4-(4-Fluorophenyl)naphthalen-2-yl)-N-((R)-1-(3-methoxyphenyl)ethyl)ethanamine hydrochloride] | > 7.70
CC(N[C@H](C)c1cccc(Cl)c1)c1cc(-c2ccc(C3(F)COC3)cc2)c2ccccc2c1 (mixture of isomers) [Example 23, (1R)-1-(3-chlorophenyl)-N-(1-(4-(4-(3-fluorooxetan-3-yl)phenyl)naphthalen-2-yl)ethyl)ethanamine hydrochloride] | > 7.70
CC(C)OC(=O)CCc1cc(F)cc(-c2cc(C(C)N[C@H](C)c3cccc(Cl)c3)cc3ccccc23)c1 (mixture of isomers) [Example 153, Isopropyl 3-(3-(3-(1-(((R)-1-(3-chlorophenyl)ethyl)amino)ethyl)naphthalen-1-yl)-5-fluorophenyl) propanoate hydrochloride] | 7.30 to 7.70
CC(N[C@H](C)c1cccc(Cl)c1)c1cc(-c2cc(F)cc(CCC(=O)O)c2)c2ccccc2c1 (mixture of isomers) [Example 156, 3-(3-(3-(1-(((R)-1-(3-Chlorophenyl)ethyl)amino)ethyl)naphthalen-1-yl)-5-fluorophenyl)propanoic acid hydrochloride] | 7.30 to 7.70
CC(N[C@H](C)c1cccc2ccccc12)c1cc(-c2ccc(C(F)(F)F)cc2)c2ccccc2c1 (single isomer, unassigned) [Example 9a, hydrochloride] | 7.30 to 7.70
CC(N[C@H](C)c1cccc2ccccc12)c1cc(-c2ccc(C(F)(F)F)cc2)c2ccccc2c1 (single isomer, unassigned) [Example 9b, hydrochloride] | > 7.70
CCC(N[C@H](C)c1cccc(OC)c1)c1cc(-c2ccc(C(F)(F)F)cc2)c2ccccc2c1 (single isomer, unassigned) [Example 18a, hydrochloride] | > 7.70
COc1cccc([C@@H](C)NC(C)c2cc(-c3ccc(C)c(C(=O)O)c3)c3ccccc3c2)c1 (single isomer, unassigned) [Example 114b, hydrochloride] | 7.30 to 7.70
COc1cc(F)cc(C(C)NC(C)c2cc(-c3ccc(C(F)(F)F)cc3)c3ccccc3c2)c1 (single isomer, unassigned) [Example 163a, 1-(3-Fluoro-5-methoxyphenyl)-N-(1-(4-(4-(trifluoromethyl)phenyl)naphthalen-2-yl)ethyl)ethanamine hydrochloride] | 6.40 to 7.30
COc1cc(F)cc(C(C)NC(C)c2cc(-c3ccc(C(F)(F)F)cc3)c3ccccc3c2)c1 (single isomer, unassigned) [Example 163b, 1-(3-Fluoro-5-methoxyphenyl)-N-(1-(4-(4-(trifluoromethyl)phenyl)naphthalen-2-yl)ethyl)ethanamine hydrochloride] | 7.30 to 7.70
C[C@@H](NCc1cc(-c2ccc(C(F)(F)F)cc2)c2ccccc2c1)c1cccc2ccccc12 [Example 1, (R)-1-(Naphthalen-1-yl)-N-((4-(4-(trifluoromethyl)phenyl)naphthalen-2-yl)methyl)ethanamine hydrochloride] | > 7.70
COc1cc([C@@H](C)NCc2cc(-c3ccc(C(F)(F)F)cc3)c3ccccc3c2)ccc1F [Example 2, (R)-1-(4-Fluoro-3-methoxyphenyl)-N-((4-(4-(trifluoromethyl)phenyl)naphthalen-2-yl)methyl)ethanamine hydrochloride] | 7.30 to 7.70
C[C@@H](NCc1cc(-c2cccc(C(F)(F)F)c2)c2ccccc2c1)c1cccc2ccccc12 [Example 3, (R)-1-(Naphthalen-1-yl)-N-((4-(3-(trifluoromethyl)phenyl)naphthalen-2-yl)methyl)ethanamine hydrochloride] | > 7.70
COc1cc([C@@H](C)NCc2cc(-c3cccc(C(F)(F)F)c3)c3ccccc3c2)ccc1F [Example 4, (R)-1-(4-Fluoro-3-methoxyphenyl)-N-((4-(3-(trifluoromethyl)phenyl)naphthalen-2-yl)methyl)ethanamine hydrochloride] | 7.30 to 7.70
COc1cccc([C@@H](C)NCCCc2cc(-c3ccc(C(F)(F)F)cc3)c3ccccc3c2)c1 [Example 5, (R)-N-(1-(3-Methoxyphenyl)ethyl)-3-(4-(4-(trifluoromethyl)phenyl)naphthalen-2-yl)propan-1-amine hydrochloride] | 7.30 to 7.70
COc1cccc([C@@H](C)NC(C)c2cc(-c3ccc(C(F)(F)F)cc3)c3ccccc3c2)c1 (stereo partly drawn) [Example 6, (R)-1-(3-Methoxyphenyl)-N-(1-(4-(4-(trifluoromethyl)phenyl)naphthalen-2-yl)ethyl)ethanamine hydrochloride] | > 7.70
COc1cccc([C@@H](C)NC(C)c2cc(-c3ccc(OC)c(F)c3)c3ccccc3c2)c1 (stereo partly drawn) [Example 7, 1-(4-(3-Fluoro-4-methoxyphenyl)naphthalen-2-yl)-N-((R)-1-(3-methoxyphenyl)ethyl)ethanamine hydrochloride] | > 7.70
COc1ccc(-c2cc(C(C)N[C@H](C)c3cccc(Cl)c3)cc3ccccc23)cc1F (stereo partly drawn) [Example 8, (1R)-1-(3-Chlorophenyl)-N-(1-(4-(3-fluoro-4-methoxyphenyl)naphthalen-2-yl)ethyl)ethanamine hydrochloride] | > 7.70
CC(N[C@H](C)c1cccc(Cl)c1)c1cc(-c2ccc(C(F)(F)F)cc2)c2ccccc2c1 (stereo partly drawn) [Example 10, (1R)-1-(3-Chlorophenyl)-N-(1-(4-(4-(trifluoromethyl)phenyl)naphthalen-2-yl)ethyl)ethanamine hydrochloride] | > 7.70
CCOc1cccc([C@@H](C)NC(C)c2cc(-c3ccc(C(F)(F)F)cc3)c3ccccc3c2)c1 (stereo partly drawn) [Example 12, (1R)-1-(3-Ethoxyphenyl)-N-(1-(4-(4-(trifluoromethyl)phenyl)naphthalen-2-yl)ethyl)ethanamine hydrochloride] | > 7.70
CC(N[C@H](C)c1cccc(F)c1)c1cc(-c2ccc(C(F)(F)F)cc2)c2ccccc2c1 (stereo partly drawn) [Example 13, (1R)-1-(3-Fluorophenyl)-N-(1-(4-(4-(trifluoromethyl)phenyl)naphthalen-2-yl)ethyl)ethanamine hydrochloride] | > 7.70
CC(N[C@H](C)c1cccc(Cl)c1)c1cc(-c2cccc(C(F)(F)F)c2)c2ccccc2c1 (stereo partly drawn) [Example 14, (1R)-1-(3-Chlorophenyl)-N-(1-(4-(3-(trifluoromethyl)phenyl)naphthalen-2-yl)ethyl)ethanamine hydrochloride] | > 7.70
CC(N[C@H](C)c1cccc(Cl)c1)c1cc(-c2ccc(F)cc2)c2ccccc2c1 (stereo partly drawn) [Example 16, (1R)-1-(3-Chlorophenyl)-N-(1-(4-(4-fluorophenyl)naphthalen-2-yl)ethyl)ethanamine hydrochloride] | > 7.70
COc1cccc([C@@H](C)NC(C)c2cc(-c3ccc(S(C)(=O)=O)cc3)c3ccccc3c2)c1 (stereo partly drawn) [Example 17, (1R)-1-(3-Methoxyphenyl)-N-(1-(4-(4-(methylsulfonyl)phenyl)naphthalen-2-yl)ethyl)ethanamine hydrochloride] | 6.40 to 7.30
COc1cccc([C@@H](C)NC(C)c2cc(-c3ccc(OC(F)(F)F)cc3)c3ccccc3c2)c1 (stereo partly drawn) [Example 19, (1R)-1-(3-Methoxyphenyl)-N-(1-(4-(4-(trifluoromethoxy)phenyl)naphthalen-2-yl)ethyl)ethanamine hydrochloride] | > 7.70
